Results published in the supplement of paper PMC11061612.

Columns and labels:
Assay in all cases: combination Emax (second highest fraction inhibited in the dose matrix, 72 h); higher = more inhibition; extreme values may be limits of the assay
GAK (Melanoma) = tested on: GAK (Melanoma)
Method in brief: (§1)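 Bliss excess equals the observed combination effect minus the expected value EA + EB − EA·EB, where EA and EB are the effects of each agent alone. Combination Emax is the second-highest inhibition within the matrix. Inhibition was scaled from CellTiter-Glo 2.0 luminescence, with 0 set by vehicle wells and 1 by blank wells, after 72 hours of two-drug dosing of cells plated in 1536-well plates.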

[1] = tested on: LCLC-103H (Non-Small Cell Lung Carcinoma)
Method in brief: as §1

[2] = tested on: SCC-4 (Oral Cavity Carcinoma)
Method in brief: as §1

[3] = tested on: PL4 (Pancreatic Carcinoma)
Method in brief: as §1

[4] = tested on: RCC-JW (Kidney Carcinoma)
Method in brief: as §1

[5] = tested on: T84 (Colorectal Carcinoma)
Method in brief: as §1

[6] = tested on: Raji (Burkitt's Lymphoma)
Method in brief: as §1

[7] = tested on: SK-CO-1 (Colorectal Carcinoma)
Method in brief: as §1

[8] = tested on: NCI-H3118 (Head and Neck Carcinoma)
Method in brief: as §1

NB1 (Neuroblastoma) = tested on: NB1 (Neuroblastoma)
Method in brief: as §1

AM-38 (Glioblastoma) = tested on: AM-38 (Glioblastoma)
Method in brief: as §1

[9] = tested on: NCI-H596 (Other Solid Carcinomas)
Method in brief: as §1

NCI-H2373 (Mesothelioma) = tested on: NCI-H2373 (Mesothelioma)
Method in brief: as §1

[10] = tested on: MM1S (Plasma Cell Myeloma)
Method in brief: as §1

[11] = tested on: MS-1 (Small Cell Lung Carcinoma)
Method in brief: as §1

[12] = tested on: SiHa (Cervical Carcinoma)
Method in brief: as §1

[13] = tested on: SNU-423 (Hepatocellular Carcinoma)
Method in brief: as §1

[14] = tested on: NAMALWA (Burkitt's Lymphoma)
Method in brief: as §1

[15] = tested on: KP-4 (Pancreatic Carcinoma)
Method in brief: as §1

T47D (Breast Carcinoma) = tested on: T47D (Breast Carcinoma)
Method in brief: as §1

| SMILES | combination Emax (GAK (Melanoma)) | combination Emax [1] | combination Emax [2] | combination Emax [3] | combination Emax [4] | combination Emax [5] | combination Emax [6] | combination Emax [7] | combination Emax [8] | combination Emax (NB1 (Neuroblastoma)) | combination Emax (AM-38 (Glioblastoma)) | combination Emax [9] | combination Emax (NCI-H2373 (Mesothelioma)) | combination Emax [10] | combination Emax [11] | combination Emax [12] | combination Emax [13] | combination Emax [14] | combination Emax [15] | combination Emax (T47D (Breast Carcinoma)) |
| --- | --- | --- | --- | --- | --- | --- | --- | --- | --- | --- | --- | --- | --- | --- | --- | --- | --- | --- | --- | --- |
| COc1nnc2ccc(N3CCC(c4ccc(OCCN5CCN(C)C(=O)[C@H]5C)cc4)CC3)nn12 [AZD5153] + CC1(C)CCC(CN2CCN(c3ccc(C(=O)NS(=O)(=O)c4ccc(NCC5CCOCC5)c([N+](=O)[O-])c4)c(Oc4cnc5[nH]ccc5c4)c3)CC2)=C(c2ccc(Cl)cc2)C1 [Venetoclax] (first compound max 1 µM, 7x7, partner max 1 µM) | 0.478 | 0.376 | 0.389 | 0.572 | 0.3 | 0.219 | 0.62 | 0.321 | 0.568 | 0.232 | 0.232 | 0.751 | 0.39 | 0.611 | 0.906 | 0.505 | 0.41 | 0.761 | 0.526 | 0.483 |
| COc1nnc2ccc(N3CCC(c4ccc(OCCN5CCN(C)C(=O)[C@H]5C)cc4)CC3)nn12 [AZD5153] + CCN(CCO)CCCOc1ccc2c(Nc3cc(CC(=O)Nc4cccc(F)c4)[nH]n3)ncnc2c1 [AZD2811] (first compound max 1 µM, 7x7, partner max 1 µM) | 0.44 | 0.511 | 0.444 | 0.53 | 0.3 | 0.202 | 0.558 | 0.571 | 0.55 | 0.556 | 0.433 | 0.744 | 0.41 | 0.635 | 0.854 | 0.571 | 0.507 | 0.748 | 0.67 | 0.494 |
| COc1nnc2ccc(N3CCC(c4ccc(OCCN5CCN(C)C(=O)[C@H]5C)cc4)CC3)nn12 [AZD5153] + C[C@@H]1COCCN1C2=NC(=NC(=C2)C3(CC3)[S@](=N)(=O)C)C4=C5C=CNC5=NC=C4 [AZD6738] (first compound max 1 µM, 7x7, partner max 10 µM) | 0.605 | 0.492 | 0.732 | 0.756 | 0.527 | 0.583 | 0.875 | 0.714 | 0.61 | 0.744 | 0.823 | 0.79 | 0.565 | 0.778 | 1 | 0.639 | 0.517 | 0.914 | 0.77 | 0.637 |
| COc1nnc2ccc(N3CCC(c4ccc(OCCN5CCN(C)C(=O)[C@H]5C)cc4)CC3)nn12 [AZD5153] + Cc1c2c(nn1C)CSCc1cc(n(C)n1)CSc1cc(c3ccccc3c1)OCCCc1c(C(=O)O)n(C)c3c-2c(Cl)ccc13 [AZD5991] (first compound max 1 µM, 7x7, partner max 1 µM) | 0.836 | 0.414 | 0.775 | 0.63 | 0.3 | 0.23 | 0.896 | 0.403 | 0.678 | 0.52 | 0.295 | 0.79 | 0.381 | 1 | 0.961 | 0.666 | 0.431 | 0.966 | 0.76 | 0.571 |
| COc1nnc2ccc(N3CCC(c4ccc(OCCN5CCN(C)C(=O)[C@H]5C)cc4)CC3)nn12 [AZD5153] + Cn1cnc2c(F)c(Nc3ccc(Br)cc3Cl)c(C(=O)NOCCO)cc21 [Selumetinib] (first compound max 1 µM, 7x7, partner max 10 µM) | 0.612 | 0.454 | 0.509 | 0.851 | 0.3 | 0.483 | 0.535 | 0.804 | 0.63 | 0.445 | 0.659 | 0.725 | 0.439 | 0.947 | 0.817 | 0.628 | 0.424 | 0.771 | 0.597 | 0.549 |
| Cc1c2c(nn1C)CSCc1cc(n(C)n1)CSc1cc(c3ccccc3c1)OCCCc1c(C(=O)O)n(C)c3c-2c(Cl)ccc13 [AZD5991] + C1CN(CCC1(C(=O)N[C@@H](CCO)C2=CC=C(C=C2)Cl)N)C3=NC=NC4=C3C=CN4 [Capivasertib] (first compound max 1 µM, 7x7, partner max 3 µM) | 0.179 | 0.242 | 0.334 | 0.339 | 0.208 | 0.0983 | 0.692 | 0.213 | 0.245 | 0.507 | 0.494 | 0.318 | 0.42 | 1 | 0.524 | 0.23 | 0.341 | 1 | 0.143 | 0.579 |
| Cc1c2c(nn1C)CSCc1cc(n(C)n1)CSc1cc(c3ccccc3c1)OCCCc1c(C(=O)O)n(C)c3c-2c(Cl)ccc13 [AZD5991] + C=CCn1c(=O)c2cnc(Nc3ccc(N4CCN(C)CC4)cc3)nc2n1-c1cccc(C(C)(C)O)n1 [AZD1775] (first compound max 1 µM, partner max 1 µM) | 0.802 | 0.523 | 0.715 | 0.737 | 0.279 | 0.631 | 0.916 | 0.517 | 0.9 | 0.936 | 0.53 | 0.289 | 0.394 | 0.992 | 0.916 | 0.314 | 0.591 | 0.996 | 0.659 | 0.574 |
| Cc1c2c(nn1C)CSCc1cc(n(C)n1)CSc1cc(c3ccccc3c1)OCCCc1c(C(=O)O)n(C)c3c-2c(Cl)ccc13 [AZD5991] + CC1(C)CCC(CN2CCN(c3ccc(C(=O)NS(=O)(=O)c4ccc(NCC5CCOCC5)c([N+](=O)[O-])c4)c(Oc4cnc5[nH]ccc5c4)c3)CC2)=C(c2ccc(Cl)cc2)C1 [Venetoclax] (first compound max 1 µM, 7x7, partner max 1 µM) | 0.523 | 0.145 | 0.345 | 0.234 | 0.23 | 0.142 | 0.682 | 0.16 | 0.412 | 0.535 | 0.597 | 0.289 | 0.161 | 0.99 | 0.76 | 0.137 | 0.144 | 0.994 | 0.157 | 0.434 |
| Cc1c2c(nn1C)CSCc1cc(n(C)n1)CSc1cc(c3ccccc3c1)OCCCc1c(C(=O)O)n(C)c3c-2c(Cl)ccc13 [AZD5991] + CN(C)CCCOc1ccc(-c2ccc3ncc4c(c3c2)n(C2CCOCC2)c(=O)n4C)cn1 [AZD0156] (first compound max 1 µM, 7x7, partner max 1 µM) | 0.266 | 0.375 | 0.382 | 0.357 | 0.289 | 0.192 | 0.704 | 0.363 | 0.314 | 0.278 | 0.677 | 0.328 | 0.272 | 0.992 | 0.524 | 0.326 | 0.297 | 0.996 | 0.259 | 0.749 |
| Cc1c2c(nn1C)CSCc1cc(n(C)n1)CSc1cc(c3ccccc3c1)OCCCc1c(C(=O)O)n(C)c3c-2c(Cl)ccc13 [AZD5991] + C[C@@H]1COCCN1C2=NC(=NC(=C2)C3(CC3)[S@](=N)(=O)C)C4=C5C=CNC5=NC=C4 [AZD6738] (first compound max 1 µM, 7x7, partner max 10 µM) | 0.593 | 0.531 | 0.755 | 0.761 | 0.547 | 0.669 | 0.974 | 0.615 | 0.601 | 0.931 | 0.771 | 0.318 | 0.551 | 1 | 0.826 | 0.318 | 0.471 | 0.997 | 0.501 | 0.44 |
| Cc1c2c(nn1C)CSCc1cc(n(C)n1)CSc1cc(c3ccccc3c1)OCCCc1c(C(=O)O)n(C)c3c-2c(Cl)ccc13 [AZD5991] + C[C@@H](Nc1cc(F)cc(F)c1)c1cc(C(=O)N(C)C)cc2c(=O)cc(N3CCOCC3)oc12 [AZD8186] (first compound max 1 µM, 7x7, partner max 3 µM) | 0.349 | 0.352 | 0.598 | 0.421 | 0.461 | 0.139 | 0.749 | 0.283 | 0.33 | 0.26 | 0.436 | 0.299 | 0.287 | 0.958 | 0.48 | 0.356 | 0.431 | 0.986 | 0.206 | 0.504 |
| Cc1c2c(nn1C)CSCc1cc(n(C)n1)CSc1cc(c3ccccc3c1)OCCCc1c(C(=O)O)n(C)c3c-2c(Cl)ccc13 [AZD5991] + Cc1cc2ncnn2cc1Nc1ncc2c(n1)n(C1CCOCC1)c(=O)n2C [AZD7648] (first compound max 1 µM, 7x7, partner max 10 µM) | 0.305 | 0.363 | 0.458 | 0.386 | 0.319 | 0.0921 | 0.728 | 0.279 | 0.308 | 0.211 | 0.615 | 0.367 | 0.409 | 1 | 0.564 | 0.255 | 0.362 | 1 | 0.263 | 0.475 |
